Experimental findings from patent US9475805B2, “Tricyclic compound” (Kyowa Hakko Kirin Co., Ltd., priority 2008, dated 2016) are described below.

For this assay, the target named is T1, PPAR γ (Homo sapiens, UniProt P37231).
T1 construct: expressed in transfected cells; host or cells: HEK293EBNA
T1 sequence (P37231 174-475 isoform P37231-2): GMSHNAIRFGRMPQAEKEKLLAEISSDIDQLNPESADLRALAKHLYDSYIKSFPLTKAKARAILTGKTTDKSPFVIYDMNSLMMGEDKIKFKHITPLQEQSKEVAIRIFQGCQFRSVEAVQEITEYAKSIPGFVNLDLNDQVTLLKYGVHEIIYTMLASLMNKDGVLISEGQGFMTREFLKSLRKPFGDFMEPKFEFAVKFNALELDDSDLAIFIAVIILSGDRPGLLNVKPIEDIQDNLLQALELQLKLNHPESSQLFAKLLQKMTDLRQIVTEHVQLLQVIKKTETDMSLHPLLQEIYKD
As to the kind of experiment: PPAR γ activation action based on transactivation assay of PPAR γ by transient gene transfer (GAL4-PPAR γ chimeric receptor, luciferase reporter, HEK293EBNA cells). It counts as cell-based. To be noted: concentration showing 50% of the compound's own efficacy (maximum activity rate relative to pioglitazone 10 μmol/L = 100%), 24 hr. As for the experimental part:
The agonist activity of compound (I) to PPAR γ was determined by a transactivation assay method using a chimeric nuclear receptor of a DNA binding region of a yeast transcription factor GAL4 and a PPAR γ ligand binding region. Specifically, the PPAR γ agonist activity of compound (I) was evaluated by the following method based on the method of Lehmann et al. (J Biol Chem., 1995, vol. 270, page 12953).
HEK293EBNA cells cultured in Dulbecco's Modified Eagle medium (Invitrogen) containing 10 v/v % fetal calf serum (Invitrogen) were used. 30 mL of the above-mentioned cells (density: 1×10^5 cells/mL) were inoculated in a […] (Iwaki Glass), and cultured overnight. Using SuperFect Transfection Reagent (QIAGEN), a plasmid expressing a GAL4-PPAR γ chimeric nuclear receptor fusing 174-475 amino acids, which are human PPAR γ ligand binding region, and 1-147 amino acids, which are GAL4 DNA binding region, and a reporter plasmid expressing a GAL4 responsive luciferase were transiently introduced into the cells at a proportion of 4:1. After 5 hr from transfection, the cells were detached from the culture dish, and the detached cells (density: 2×10^4 cells/mL) were inoculated by 100 μL in each well of a 96 well white plate (SUMITOMO BAKELITE), and cultured overnight. The medium was removed, compound (I) diluted in various concentrations with serum-free Dulbecco's Modified Eagle medium was added by 100 μL, and the mixture was reacted under a 5% carbon dioxide gas stream (5% CO2) at 37° C. for 24 hr. On the other hand, as a positive control, 10 μmol/L of pioglitazone (100 μL) was added, and the mixture was reacted under a 5% carbon dioxide gas stream (5% CO2) at 37° C. for 24 hr. As a substrate of luciferase, 100 μL of Steady-Glo (Promega) was added to each well and the mixture was thoroughly stirred. Immediately thereafter, the chemical luminescence due to luciferase was measured using TopCount NTX (Packard).
The agonist activity (activity rate (%)) of compound (I) to PPAR γ was calculated according to the following formula, as a relative activity when the agonist activity on addition of pioglitazone (10 μmol/L) was 100%.
A general note: In a reporter assay the amount or activity of a reporter protein is the signal.
As a reminder, the EC50 is the concentration at which the effect is half-maximal. Molecule `CCCc1nc2ccccc2n1Cc1ccc2c(c1)CCc1ccccc1/C2=C\c1noc(=O)[nH]1` [Compound 5, (E)-2-(2-Propylbenzimidazol-1-yl)methyl-5-(5-oxo-4,5-dihydro-1,2,4-oxadiazol-3-yl)methylene-10,11-dihydro-5H-dibenzo[a,d]cycloheptene] registered an EC50 of 399 nM.

With `CCCc1nc2ccccc2n1Cc1ccc2c(c1)CCc1ccccc1/C2=C\c1n[nH]c(=O)o1` [Compound 7, (E)-2-(2-Propylbenzimidazol-1-yl)methyl-5-(5-oxo-4,5-dihydro-1,3,4-oxadiazol-2-yl)methylene-10,11-dihydro-5H-dibenzo[a,d]cycloheptene], the EC50 is 791 nM. This EC50 lies about 2-fold higher than the previous one.

Molecule `CCc1nc2c(C)cc(C)nc2n1Cc1ccc2c(c1)CCc1ccccc1/C2=C\c1noc(=S)[nH]1` [Compound 8, (E)-2-(2-Ethyl-5,7-dimethyl-3H-imidazo[4,5-b]pyridin-3-yl)methyl-5-(5-thioxo-4,5-dihydro-1,2,4-oxadiazol-3-yl)methylene-10,11-dihydro-5H-dibenzo[a,d]cycloheptene] showed an EC50 of 175 nM. This EC50 lies about 4.5-fold lower than the previous one.

In turn, `CCCc1nc2c(C)cccc2n1Cc1ccc2c(c1)CCc1ccccc1/C2=C(\C)c1nnn[nH]1` [Compound 17, (Z)-2-(4-Methyl-2-propylbenzimidazol-1-yl)methyl-5-[1-(1H-tetrazol-5-yl)ethylidene]-10,11-dihydro-5H-dibenzo[a,d]cycloheptene] displayed a concentration for a half-maximal effect (EC50) of 30 nM. This EC50 lies about 5.8-fold lower than the previous one.

On to `C/C(=C1\c2ccccc2CCc2cc(Cn3c(C4CC4)nc4c(Cl)cccc43)ccc21)c1noc(=O)[nH]1` [Compound 19, (Z)-2-(4-Chloro-2-cyclopropylbenzimidazol-1-yl)methyl-5-[1-(5-oxo-4,5-dihydro-1,2,4-oxadiazol-3-yl)ethylidene]-10,11-dihydro-5H-dibenzo[a,d]cycloheptene], for which the EC50 was found to be 6.4 nM.

As to `CCc1nc(-c2ccccc2)cn1Cc1ccc2c(c1)COc1ccccc1/C2=C(\C)c1noc(=O)[nH]1` [Compound 21, (E)-8-(2-Ethyl-4-phenylimidazol-1-yl)methyl-11-[1-(5-oxo-4,5-dihydro-1,2,4-oxadiazol-3-yl)ethylidene]-6,11-dihydrodibenzo[b,e]oxepine], a half-maximal response (EC50) required 40 nM.

Take `CCc1nc2ccccc2n1Cc1ccc2c(c1)COc1ccccc1/C2=C(\C)c1noc(=O)[nH]1` [Compound 26, (E)-8-(2-Ethylbenzimidazol-1-yl)methyl-11-[1-(5-oxo-4,5-dihydro-1,2,4-oxadiazol-3-yl)ethylidene]-6,11-dihydrodibenzo[b,e]oxepine]: the response was half-maximal at 17 nM (EC50). This EC50 lies about 2.4-fold lower than the previous one.

As for `CCCc1nc2ccccc2n1Cc1ccc2c(c1)COc1ccccc1/C2=C(\C)c1noc(=O)[nH]1` [Compound 27, (E)-8-(2-Propylbenzimidazol-1-yl)methyl-11-[1-(5-oxo-4,5-dihydro-1,2,4-oxadiazol-3-yl)ethylidene]-6,11-dihydrodibenzo[b,e]oxepine], a half-maximal effect (EC50) was put at 2.6 nM.

In turn, `COCc1nc2ccccc2n1Cc1ccc2c(c1)COc1ccccc1/C2=C(\C)c1noc(=O)[nH]1` [Compound 30, (E)-8-(2-Methoxymethylbenzimidazol-1-yl)methyl-11-[1-(5-oxo-4,5-dihydro-1,2,4-oxadiazol-3-yl)ethylidene]-6,11-dihydrodibenzo[b,e]oxepine] came in with an EC50 of 9.8 nM.

In the case of `C/C(=C1/c2ccc(Cn3c(Cc4ccccc4)nc4ccccc43)cc2COc2ccccc21)c1noc(=O)[nH]1` [Compound 33, (E)-8-(2-Benzylbenzimidazol-1-yl)methyl-11-[1-(5-oxo-4,5-dihydro-1,2,4-oxadiazol-3-yl)ethylidene]-6,11-dihydrodibenzo[b,e]oxepine], the half-maximal effective concentration (EC50) worked out at 26 nM.

The molecule `CCCc1nc2c(C)cccc2n1Cc1ccc2c(c1)COc1ccccc1/C2=C(\C)c1noc(=O)[nH]1` [Compound 35, (E)-8-(2-Propyl-4-methylbenzimidazol-1-yl)methyl-11-[1-(5-oxo-4,5-dihydro-1,2,4-oxadiazol-3-yl)ethylidene]-6,11-dihydrodibenzo[b,e]oxepine] came in with a concentration giving a half-maximal response (EC50) of 2.4 nM.

On to `CCc1nc2c(C)cc(-c3ccccc3)cc2n1Cc1ccc2c(c1)CCc1ccccc1/C2=C\C#N` [Compound 50, (E)-[2-(2-Ethyl-4-methyl-6-phenylbenzimidazol-1-yl)methyl-10,11-dihydro-5H-dibenzo[a,d]cyclohepten-5-ylidene]acetonitrile], for which the concentration for a half-maximal effect (EC50) was determined as 352 nM. This EC50 is about 150-fold higher than that of the molecule before.

Consider `Cc1cc(-c2ccccc2)cc2c1nc(C)n2Cc1ccc2c(c1)CCc1ccccc1/C2=C\c1nnn[nH]1` [Compound 54, (E)-2-(2,4-Methyl-6-phenylbenzimidazol-1-yl)methyl-5-(1H-tetrazol-5-yl)methylene-10,11-dihydro-5H-dibenzo[a,d]cycloheptene], for which it took 54 nM to reach a half-maximal effect (EC50).

Take `Cc1cc(-c2ccccc2)cc2c1nc(C)n2Cc1ccc2c(c1)CCc1ccccc1/C2=C\C(=O)O` [Compound 55, (E)-[2-(2,4-Dimethyl-6-phenylbenzimidazol-1-yl)methyl-10,11-dihydro-5H-dibenzo[a,d]cyclohepten-5-ylidene]acetic acid]: a half-maximal effect (EC50) was put at 39 nM. This EC50 and that of the molecule before are within 1.5-fold of each other.

In turn, `CCCc1nc2c(C)cc(-c3cccs3)cc2n1Cc1ccc2c(c1)CCc1ccccc1/C2=C\c1nnn[nH]1` [Compound 67, (E)-2-[4-Methyl-2-propyl-6-(2-thienyl)benzimidazol-1-yl]methyl-5-(1H-tetrazol-5-yl)methylene-10,11-dihydro-5H-dibenzo[a,d]cycloheptene] yielded an EC50 of 156 nM.

Molecule `CCCc1nc2c(C)cc(-c3nnco3)cc2n1Cc1ccc2c(c1)CCc1ccccc1/C2=C\c1nnn[nH]1` [Compound 70, (E)-2-[4-Methyl-6-(1,3,4-oxadiazol-2-yl)-2-propylbenzimidazol-1-yl]methyl-5-(1H-tetrazol-5-yl)methylene-10,11-dihydro-5H-dibenzo[a,d]cycloheptene] returned an EC50 of 156 nM.

Turning to `CCc1nc2c(C)cc(C)nc2n1Cc1ccc2c(c1)OCc1ccccc1/C2=C(\C)c1noc(=O)[nH]1` [Compound 76, (Z)-3-(2-Ethyl-5,7-dimethyl-3H-imidazo[4,5-b]pyridin-3-yl)methyl-11-[1-(5-oxo-4,5-dihydro-1,2,4-oxadiazol-3-yl)ethylidene]-6,11-dihydrodibenzo[b,e]oxepine], a half-maximal response (EC50) required 328 nM.

`CCCc1nc2c(C)cccc2n1C(C)c1ccc2c(c1)CCc1ccccc1/C2=C\c1noc(=O)[nH]1` (centres unmarked) [Compound 85, (E)-2-[1-(2-Propyl-4-methylbenzimidazol-1-yl)ethyl]-5-(5-oxo-4,5-dihydro-1,2,4-oxadiazol-3-yl)methylene-10,11-dihydro-5H-dibenzo[a,d]cycloheptene] gave an EC50 of 27 nM.

For `CCc1nc2c(Cl)cccc2n1C(C)c1ccc2c(c1)CCc1ccccc1/C2=C\c1noc(=O)[nH]1` (centres unmarked) [Compound 87, (E)-2-[1-(4-Chloro-2-ethylbenzimidazol-1-yl)ethyl]-5-(5-oxo-4,5-dihydro-1,2,4-oxadiazol-3-yl)methylene-10,11-dihydro-5H-dibenzo[a,d]cycloheptene], it took 60 nM to reach a half-maximal effect (EC50).

The molecule `CCCc1nc2c(C)cc(-c3ncco3)cc2n1Cc1ccc2c(c1)CCc1ccccc1/C2=C\C(=O)N(C)CC(=O)O` [Compound 95, (E)-2-[N-Methyl 2-({2-[4-methyl-6-(1,3-oxazol-2-yl)-2-propylbenzimidazol-1-yl]methyl-10,11-dihydro-5H-dibenzo[a,d]cyclohepten-5-ylidene}acetamido)]acetic acid] displayed a 50% effective concentration (EC50) of 31 nM. This EC50 lies about 1.9-fold lower than the previous one.
